Reference: patent publication US7728032B2, “Phenoxymethylalkyne inhibitors of LTA4H for treating inflammation” (deCODE genetics ehf, priority 2006, dated 2010)
Counter-ions that a name gives are not always drawn. Like-named read-outs stand apart in the source and are kept apart here.

Experiments:
[1] = target: T1, recombinant human LTA4 hydrolase (Homo sapiens, UniProt P09960); assay: In vitro assay testing inhibitory activity against purified recombinant human LTA4 hydrolase; format: biochemical; conditions: 200 nM recombinant enzyme, 2 μM LTA4, 120 sec, LTB4 formed measured by LC-MS/MS
T1 construct: A human LTA4 hydrolase full-length cDNA clone (NM_000895) was purchased from OriGene Technologies; 6xHis (own knowledge: pDEST17 adds an N-terminal His tag); made in house; host or cells: Escherichia coli BL21-AI
T1 sequence (P09960 1-611): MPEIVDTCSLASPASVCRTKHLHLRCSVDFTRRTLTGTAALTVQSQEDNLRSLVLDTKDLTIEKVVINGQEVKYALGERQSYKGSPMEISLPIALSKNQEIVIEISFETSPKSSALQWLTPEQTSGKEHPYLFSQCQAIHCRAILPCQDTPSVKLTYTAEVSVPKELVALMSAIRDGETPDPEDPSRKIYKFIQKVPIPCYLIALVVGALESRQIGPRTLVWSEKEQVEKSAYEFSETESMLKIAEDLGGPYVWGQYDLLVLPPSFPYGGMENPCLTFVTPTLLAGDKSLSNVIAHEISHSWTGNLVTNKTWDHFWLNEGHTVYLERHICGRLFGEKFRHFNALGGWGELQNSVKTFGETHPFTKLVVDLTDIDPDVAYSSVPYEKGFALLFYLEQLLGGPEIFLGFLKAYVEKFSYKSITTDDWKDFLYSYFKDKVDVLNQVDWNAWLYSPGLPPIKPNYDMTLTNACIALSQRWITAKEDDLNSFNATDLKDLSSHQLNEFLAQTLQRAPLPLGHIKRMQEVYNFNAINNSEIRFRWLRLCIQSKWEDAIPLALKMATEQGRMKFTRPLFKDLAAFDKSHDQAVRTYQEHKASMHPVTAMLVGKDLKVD
From the text: (1) In vitro assay testing inhibitory activity against purified recombinant human LTA4 hydroase:
A human LTA4 hydrolase full-length cDNA clone (NM_000895) was purchased from OriGene Technologies (Rockville, Md.). The gene was amplified by polymerase chain reaction and transferred via pDONR201 into the bacterial expression vector pDEST17 by recombination (both plasmids from Invitrogen, Carlsbad, Calif.). The resulting construct was transformed into Escherichia coli BL21-AI (Invitrogen), and expression was induced by chemical induction with arabinose. The recombinant enzyme was purified by chromatography on a FPLC system (Amersham Biosciences, Uppsala, Sweden) using immobilized metal affinity chromatography (Ni-NTA Superflow, Qiagen, Hilden, Germany) and anion exchange chromatography (MonoQ HR 10/10, Amersham Biosciences).
The compounds of the invention were incubated in a series of dilutions with 200 nM of recombinant enzyme in assay buffer (100 mM Tris-HCl, 100 mM NaCl, 5 mg/ml fatty-acid free BSA, 10% DMSO, pH 8.0) for 10 min at room temperature to allow binding between LTA4 hydrolase and the inhibitors. LTA4 was prepared by alkaline hydrolysis of LTA4 methyl ester (Biomol, Plymouth Meeting, Pa., or Cayman Chemicals, Ann Arbor, Mich.). A solution of 10 μg of the ester was dried under a nitrogen stream and redissolved in 60 μl of a solution of 80% aceton and 20% 0.25 M NaOH. After incubation for 40 min at room temperature the resulting approximately 500 μM tock of LTA4 was kept at −80° C. for no more than a few days prior to use.
Immediately before the assay, LTA4 was diluted to a concentration of 10 μM in assay buffer (without DMSO) and added to the reaction mixture to a final concentration of 2 μM to initiate the enzyme reaction. After incubation for 120 sec at room temperature, the reaction was stopped by adding 2 volumes of chilled quenching buffer, containing acetonitril with 1% acetic acid and 225 nM LTB4-d4 (Biomol). The samples were then kept at 4° C. over night to complete protein precipitation and centrifuged for 15 min at 1800 g. LTB4 formed was measured by LC-MS/MS using LTB4-d4 as an internal standard and an external LTB4 standard (Biomol) as reference. Briefly, the analyte was separated from LTB4 isomers formed by spontaneous hydrolysis of LTA4 using isocratic elution (modified protocol from Mueller et al. (1996), J. Biol. Chem. 271, 24345-24348) on a HPLC system (Waters, Milford, Mass.) and analyzed on a tandem quadrupole mass spectrometer (Waters). MRM transitions followed on 2 channels were 335.2>195.3 (LTB4) and 339.2>197.3 (LTB4-d4). Based on the amounts of LTB4 found at each inhibitor concentration, a dose-response curve was fitted to the data and an IC50 value was calculated.

spontaneous colitis = conditions: eight weeks of treatment, primate model; cited from earlier work
[2] = tested on: ionophore-induced LTB4 production; conditions: oral administration, rat peritoneum in vivo; cited from earlier work
[3] = tested on: ionophore-induced LTB4 production; conditions: oral administration, mouse blood ex vivo; cited from earlier work

| Compound | IC50 [1] [µM] | further results |
| --- | --- | --- |
| Brc1ccc(C#CCOc2ccc(OC[C@H]3CCCN3)cc2)cc1 [Example 4, 2-{4-[3-(4-Bromo-phenyl)-prop-2-ynyloxy]-phenoxymethyl}-pyrrolidine hydrochloride] | 5 to 20 |  |
| C(#Cc1ccccc1)COc1ccc(OC[C@H]2CCCN2)cc1 [Example 2, 2-[4-(3-Phenyl-prop-2-ynyloxy)-phenoxymethyl]-pyrrolidine] | < 5 |  |
| CN(CCCOc1ccc(Cc2ccccc2)cc1)CCC(=O)O.Cl [SC57461] |  | colitis symptoms (spontaneous colitis): significantly improved; inhibition of ionophore-induced LTB4 production [2]: inhibition; inhibition of ionophore-induced LTB4 production [3]: inhibition |
| C#CCOc1ccc(OC[C@H]2CCCN2)cc1 [Example 1, (R)-2-(4-Prop-2-ynyloxy-phenoxymethyl)-pyrrolidine hydrochloride] | 5 to 20 |  |
| (4-{3-[4-(Pyrrolidin-2-ylmethoxy)-phenoxy]-prop-1-ynyl}-phenyl)-methanol [Example 3] | < 5 |  |
| CC#CCOc1ccc(OCCN2CCCCC2)cc1 [Example 6, 1-[2-(4-But-2-ynyloxy-phenoxy)-ethyl]-piperidine] | 5 to 20 |  |
